Like-named read-outs stand apart in the source and are kept apart here.
Experiments:
[1] = system: OFM males; experiment: Field trapping with delta traps, pear orchard; format: in vivo, Grapholita molesta; conditions: for Inhibition Rate of OFM Males: vs 100:4:0
Experimental: (§1) To determine the inhibitory effects on OFM male adults and the impact on the trapping effects of PFM male adults, varying amounts of Z8-14:Ac (0, 5, 10, 25, 50, 75, 100, 125, 150 μg) or Z10-14:Ac (0, 25, 50, 100, 150, 250, 350, 450, and 550 μg) were added to rubber septa loaded with a constant dosage of the main pheromone (500 μg of Z8-12:Ac and 20 μg of E8-12:Ac) of the PFM. Trapping experiments of Z8-14:Ac were carried out in peach and pear orchards in Yan’an and Xinjiang (China), respectively. Trapping tests of Z10-14:Ac were performed in pear orchards in Xinjiang (China). Each orchard had nine plots, with three plots in one field. Each plot consisted of a linear arrangement of traps loaded with a constant dosage of the main pheromones and different percentages of the secondary pheromone Z8-14:Ac or Z10-14:Ac of the PFM. Plots in the same field were placed 30 m apart, and fields were ≥1 km apart. The traps were hung 1.4 m from the ground on a suspension bracket between two rows of peach or pear trees from 10 June to 25 July 2021 in Xinjiang and from 15 June to 30 July 2021 in Yan’an. The positions of the traps within the plot were randomly arranged. Every 5 days, counts were taken, and the traps were rotated to the adjacent position to avoid any potential position effects. The septa loaded with sex pheromone components were replaced with new ones after every 15 days of suspension. The data were analyzed using a one-way ANOVA, and the differences in the average trapping of OFM and PFM males using sex attractants containing different amounts of Z8-14:Ac or Z10-14:Ac were further analyzed using Tukey’s HSD test, both of which were performed using SPSS 23.0.

[2] = molecular target: rGmolGOBP1 (Grapholita molesta, UniProt H9XTU5); experiment: Fluorescence competitive binding assay with 1-NPN probe; conditions: for Ki: calculated from IC50 and Kd of 1-NPN
Description: (§2) Previous researchers have successfully expressed rGmolPBP1, rGmolPBP2, rGmolPBP3, rGmolGOBP1, and rGmolGOBP2 proteins using prokaryotic expression systems. In this article, the DNA sequences of these five GmolPBPs and GmolGOBPs, with the signal peptides removed and restriction sites on both ends, were inserted into the expression vector pET28a(+) linearized with the same restriction enzyme. These vectors were then transformed into Escherichia coli BL21(DE3) and induced by isopropyl-β-d-thiogalactoside (IPTG). Since all five recombinant proteins were expressed in inclusion bodies, they were denatured using 8 M urea and then renatured using a cysteine/cystine REDOX system. The reduced recombinant proteins were purified using an Ni-NTA His Bind Resin column (7Sea Pharmatech Co., Ltd., Shanghai, China). Non-target proteins were washed off with washing buffer (20 mM Tris-HCl (pH 7.4), 20 mM imidazole, 1 mM PMSF, and 250 mM NaCl), and then the target proteins were eluted with elution buffer (20 mM Tris-HCl (pH 7.4), 1 mM PMSF, and 250 mM NaCl) with an increasing concentration of imidazole (50, 100, and 200 mM). Five milliliters of eluents with high target protein content and low levels of contaminants were collected and placed in dialysis tubing (Coolaber, Beijing, China) with a molecular weight cut-off of 3.5 kDa to remove NaCl and imidazole. The purified soluble proteins were stored at −80 °C before use.
(§3) The binding affinities of three rGmolPBPs and two rGmolGOBPs for Z8-14:Ac were determined using an F-2700 fluorescence spectrophotometer (Hitachi, Tokyo, Japan). First, we measured the dissociation constants (Kd) of the rGmolPBPs (or rGmolGOBPs) binding to 1−NPN. Each protein was diluted to 2 μM with 20 mM Tris-HCl buffer (pH 7.4); then, 2 mL of the protein solution was transferred to a quartz cuvette and titrated with 1 mM 1−NPN to a final concentration of 1–18 μM. As the doses of 1−NPN were increased, the increasing amplitude of the fluorescence intensity decreased, and finally, the binding of the protein to 1−NPN reached saturation. The Kd values were calculated using the nonlinear regression method and the Scatchard equation. Second, we measured the inhibitory constant (Ki) of Z8-14:Ac’s competitive binding with each rGmolPBP (or rGmolGOBP) from the protein/1−NPN complex. The initial fluorescence intensity values were measured after a 2 min reaction in 2 mL solution of 20 mM Tris-HCl (pH 7.4) containing 2 µM rGmolPBP (or rGmolGOBP) protein and 2 µM 1−NPN. Then, the solution was titrated with aliquots of 1 mM Z8-14:Ac to obtain final concentrations in the range of 1–14 µM, and the fluorescence intensity value of each reaction was recorded. The Ki values were calculated using the following equation: Ki = [IC50]/(1 + [1 − NPN]/Kd) where IC50 is the concentration of Z8-14:Ac when half of the initial fluorescence intensity value of the rGmolPBP (or GmolGOBP)/1−NPN complex is replaced, [1 − NPN] represents the concentration of free 1−NPN, and Kd is the dissociation constant of the rGmolPBP (or GmolGOBP)/1−NPN complex.

[3] = molecular target: rGmolPBP2 (wild-type) (Grapholita molesta, UniProt A0A059VC28); experiment: as above
Description: as §2, §3

[4] = system: OFM males; experiment: Field trapping with delta traps, peach orchard; format: in vivo, Grapholita molesta; conditions: for Inhibition Rate of OFM Males: vs 100:4:0
Experimental: as §1

[5] = pear orchard, Z8-12:Ac/E8-12:Ac/Z8-14:Ac 500/20/5 μg (100:4:1)
[6] = pear orchard, Z8-12:Ac/E8-12:Ac/Z8-14:Ac 500/20/10 μg (100:4:2)
[7] = pear orchard, Z8-12:Ac/E8-12:Ac/Z8-14:Ac 500/20/25 μg (100:4:5)
[8] = pear orchard, Z8-12:Ac/E8-12:Ac/Z8-14:Ac 500/20/50 μg (100:4:10)
[9] = pear orchard, Z8-12:Ac/E8-12:Ac/Z8-14:Ac 500/20/75 μg (100:4:15)
[10] = pear orchard, Z8-12:Ac/E8-12:Ac/Z8-14:Ac 500/20/100 μg (100:4:20)
[11] = pear orchard, Z8-12:Ac/E8-12:Ac/Z8-14:Ac 500/20/125 μg (100:4:25)
[12] = pear orchard, Z8-12:Ac/E8-12:Ac/Z8-14:Ac 500/20/150 μg (100:4:30)
[13] = 2 μM protein, 2 μM 1-NPN, pH 7.4, read-out: IC50 (displacement of 1-NPN)
[14] = peach orchard, Z8-12:Ac/E8-12:Ac/Z8-14:Ac 500/20/5 μg (100:4:1)
[15] = peach orchard, Z8-12:Ac/E8-12:Ac/Z8-14:Ac 500/20/10 μg (100:4:2)
[16] = peach orchard, Z8-12:Ac/E8-12:Ac/Z8-14:Ac 500/20/25 μg (100:4:5)
[17] = peach orchard, Z8-12:Ac/E8-12:Ac/Z8-14:Ac 500/20/50 μg (100:4:10)
[18] = peach orchard, Z8-12:Ac/E8-12:Ac/Z8-14:Ac 500/20/75 μg (100:4:15)
[19] = peach orchard, Z8-12:Ac/E8-12:Ac/Z8-14:Ac 500/20/100 μg (100:4:20)
[20] = peach orchard, Z8-12:Ac/E8-12:Ac/Z8-14:Ac 500/20/125 μg (100:4:25)
[21] = peach orchard, Z8-12:Ac/E8-12:Ac/Z8-14:Ac 500/20/150 μg (100:4:30)

Chain of rGmolGOBP1 (H9XTU5 entry or part of it): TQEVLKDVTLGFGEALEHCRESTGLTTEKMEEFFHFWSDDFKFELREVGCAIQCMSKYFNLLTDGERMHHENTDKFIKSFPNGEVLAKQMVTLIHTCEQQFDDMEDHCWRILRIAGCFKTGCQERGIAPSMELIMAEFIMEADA
Chain of rGmolPBP2 (wild-type) (A0A059VC28 entry or part of it): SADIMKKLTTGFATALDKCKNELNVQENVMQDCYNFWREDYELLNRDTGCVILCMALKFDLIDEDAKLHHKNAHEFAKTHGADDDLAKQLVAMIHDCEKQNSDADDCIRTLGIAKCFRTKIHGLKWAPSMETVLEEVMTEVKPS

**Q.** Which results are given for CCCCC/C=C\CCCCCCCOC(C)=O [Z8-14:Ac, (Z)-8-tetradecenyl acetate]?
**A.** maximum reduction of the capture of OFM males ([1]; field trials, varying ratios of Z8-14:Ac (1% to 30%) added to Z8-12:Ac and E8-12:Ac): up to 96.54%; Total OFM Males/Trap [1, 5]: 59.24 ± 10.14 b Males/Trap; Inhibition Rate of OFM Males [1, 5]: 65.04%; Total OFM Males/Trap [1, 6]: 61.31 ± 7.21 b Males/Trap; Inhibition Rate of OFM Males [1, 6]: 63.82%; Total OFM Males/Trap [1, 7]: 21.36 ± 6.22 c Males/Trap; Inhibition Rate of OFM Males [1, 7]: 87.40%; Total OFM Males/Trap [1, 8]: 12.05 ± 0.91 c Males/Trap; Inhibition Rate of OFM Males [1, 8]: 92.89%; Total OFM Males/Trap [1, 9]: 8.95 ± 2.69 c Males/Trap; Inhibition Rate of OFM Males [1, 9]: 94.72%; Total OFM Males/Trap [1, 10]: 12.74 ± 6.57 c Males/Trap; Inhibition Rate of OFM Males [1, 10]: 92.48%; Total OFM Males/Trap [1, 11]: 5.86 ± 1.50 c Males/Trap; Inhibition Rate of OFM Males [1, 11]: 96.54%; Total OFM Males/Trap [1, 12]: 10.33 ± 2.98 c Males/Trap; Inhibition Rate of OFM Males [1, 12]: 93.90%; reduction of the number of OFM males caught ([1]; pear orchard, adding 5–30% of Z8-14:Ac to Z8-12:Ac and E8-12:Ac): more than 86%; reduction of the capture of OFM males ([1]; pear orchards, adding 1–2% of Z8-14:Ac to Z8-12:Ac and E8-12:Ac (100:4)): 63.82–65.04%; IC50 [2, 13]: > 14 µM; Ki [2]: could not be calculated; Ki ([2]; read-out: Ki): > 14 µM; IC50 [3, 13]: 1.26 ± 0.04 µM; Ki ([3]; calculated from IC50 and Kd of 1-NPN): 0.66 ± 0.02 µM; Total OFM Males/Trap [4, 14]: 46.08±3.25 b Males/Trap; Inhibition Rate of OFM Males [4, 14]: 58.81%; Total OFM Males/Trap [4, 15]: 40.89±2.35 b Males/Trap; Inhibition Rate of OFM Males [4, 15]: 63.45%; Total OFM Males/Trap [4, 16]: 14.82±1.47 c Males/Trap; Inhibition Rate of OFM Males [4, 16]: 86.75%; Total OFM Males/Trap [4, 17]: 9.04±1.08 c Males/Trap; Inhibition Rate of OFM Males [4, 17]: 91.92%; Total OFM Males/Trap [4, 18]: 9.55±1.09 c Males/Trap; Inhibition Rate of OFM Males [4, 18]: 91.46%; Total OFM Males/Trap [4, 19]: 9.67±1.52 c Males/Trap; Inhibition Rate of OFM Males [4, 19]: 91.36%; Total OFM Males/Trap [4, 20]: 6.86±0.24 c Males/Trap; Inhibition Rate of OFM Males [4, 20]: 93.87%; Total OFM Males/Trap [4, 21]: 7.96±1.19 c Males/Trap; Inhibition Rate of OFM Males [4, 21]: 92.88%; reduction of the number of OFM males caught ([4]; peach orchard, adding 5–30% of Z8-14:Ac to Z8-12:Ac and E8-12:Ac): more than 86%; reduction of the capture of OFM males ([4]; peach orchards, adding 1–2% of Z8-14:Ac to Z8-12:Ac and E8-12:Ac (100:4)): 58.81–63.45%
